Several values for one entry are separate records, joined by “and”; a condition that tells them apart may be missing. Identical values can stand only once. No end group written: not given here.
Experiments:
[1] = tested on: hematopoietic stem cells (HSC) and their hematopoietic progenitors (HPC); test: CFU-GM / CFU-GEMM colony assay of peripheral blood mononuclear cells after single subcutaneous injection; assay type: in vivo, C57Bl6 mice
Experimental: C57Bl6 male mice, from 8 weeks to 4 month of age, from Harlan were used. Mice received subcutaneous injections of saline, Compound X (50 μg/kg) or Compound X (250 μg/kg). After 1 and 4 hours, mice were anesthetized and blood was collected through the orbital sinus with heparinized capillary tubes. 20 μl of blood was removed from each tube for WBC counts;
Remaining blood from each group was pooled and mononuclear cells were isolated by density gradient separation. To enumerate HSC and HPC in peripheral blood cells were washed, counted plated in semi-solid Methylcellulose MC3434 (Stem cell technology) at 100,000 per dish (5 dishes/group) and placed in CO2 incubator at 37° C. Colony-forming unit-granulocyte erythroid macrophage megakaryocyte (CFU-GEMM) and Colony-forming unit-granulocyte macrophage (CFU-GM) were detected under inverted microscope 7 and 10 days after.
In this experiment, C57Bl6 mice received subcutaneous injections of PBS, Compound X (250 μg/kg) or AMD3100 (5 mg/kg). After 1 hr blood was collected through the orbital sinus with heparinized capillary tubes. Blood from each group was pooled, counted and mononuclear cells were isolated by density gradient separation. Cells were washed, counted and plated at 100,000 per dish (5 dishes/group) for CFU-GEMM and CFU-GM colonies. CFU-GEMM colonies were scored on day 14, while CFU-GM colonies on day 7 after plating in MC3434 (Stem cell Technology).

HSC and HPC = test: CFU-GM / CFU-GEMM colony assay after 4 daily injections of G-CSF and Compound X; assay type: in vivo, mice; conditions: for CFU-GEMM numbers, MEAN / CFU-GM numbers, MEAN / CFU-GEMM numbers / CFU-GM numbers: 5 μg/mouse each agent s.c. daily for 4 days; for CFU-GEMM numbers / CFU-GM numbers: individual dishes; for Fold increase in number of CFU-GM / Fold increase in number of CFU-Mix (CFU-GEMM): multiple injections, 5 μg/mouse each agent
Experimental: Compound X and Neupogen (rG-CSF Amgen, lot# P043601) were diluted in PBS. Mice received subcutaneous injections of PBS, Compound X (5 μg/mouse), G-CSF (5 μg/mouse) or Compound X (5 μg/mouse)+G-CSF (5 μg/mouse) for four consecutive days. […] Mononuclear cells were isolated by density gradient separation from pooled blood. […] Blood was also collected and processed on day 8 for colony assay. Results are shown in Tables 10, 11, and 12 and in FIG. 5.

[2] = s.c. 250 μg/kg, 1 hour, individual dishes

## FPHFDLSHGSAQV [Compound X, tridecapeptide that acts on stem cells]
[1]; 1 hr after s.c. injection
  increase in number of HSC HPC in blood: up to 5 times
[1]; doses tested from 5 μg/kg up to 5 mg
  doses with mobilizing activity: 125 to 500 µg/kg
[1]; s.c. 250 μg/kg, 1 hour
  CFU-GEMM, MEAN: 3.8 per 100,000 cells
  CFU-GM (day 7), MEAN: 4 per 100,000 cells
[1]; [2]
  CFU-GEMM: 6 per 100,000 cells and 3 per 100,000 cells (3×) and 4 per 100,000 cells
  CFU-GM (day 7): 3 per 100,000 cells (2×) and 6 per 100,000 cells and 4 per 100,000 cells (2×)
[1]; s.c. 250 μg/kg, 1 hr
  number of white blood cells and CFU-GM in peripheral blood: did not change
[1]; s.c. 250 μg/kg, 1 hr, vs PBS
  increase of CFU-GEMM number in peripheral blood: 3.8 times
[1]; single s.c. 50 μg/kg, 1 hour
  CFU-GM + CFU-GEMM, MEAN: 5 per 100000 cells
[1]; single s.c. 50 μg/kg, 1 hour, individual dishes
  CFU-GM + CFU-GEMM: 5 per 100000 cells and 6 per 100000 cells and 4 per 100000 cells and 3 per 100000 cells and 7 per 100000 cells
[1]; single s.c. 50 μg/kg, 4 hour
  CFU-GM + CFU-GEMM, MEAN: 0.6 per 100000 cells
[1]; single s.c. 50 μg/kg, 4 hour, individual dishes
  CFU-GM + CFU-GEMM: 1 per 100000 cells (3×) and 0 per 100000 cells (2×)
[1]; single s.c. 250 μg/kg, 1 hour
  CFU-GM + CFU-GEMM, MEAN: 25 per 100000 cells
[1]; single s.c. 250 μg/kg, 1 hour, individual dishes
  CFU-GM + CFU-GEMM: 24 per 100000 cells (2×) and 20 per 100000 cells and 28 per 100000 cells and 29 per 100000 cells
[1]; single s.c. 250 μg/kg, 4 hour
  CFU-GM + CFU-GEMM, MEAN: 1.4 per 100000 cells
[1]; single s.c. 250 μg/kg, 4 hour, individual dishes
  CFU-GM + CFU-GEMM: 1 per 100000 cells (4×) and 3 per 100000 cells
[1]; within 1 hr after injection, from approximately 100 HSC under homeostatic conditions
  stem cell number (HSC) in circulation: 300-400 HSC
HSC and HPC; Day 4
  CFU-GEMM numbers, MEAN: 2.4 per 100000 mononuclear cells
  CFU-GM numbers, MEAN: 9.6 per 100000 mononuclear cells
  CFU-GEMM numbers: 3 per 100000 mononuclear cells (2×) and 0 per 100000 mononuclear cells and 4 per 100000 mononuclear cells and 2 per 100000 mononuclear cells
  CFU-GM numbers: 7 per 100000 mononuclear cells and 6 per 100000 mononuclear cells and 13 per 100000 mononuclear cells and 11 per 100000 mononuclear cells (2×)
  Fold increase in number of CFU-GM: 1.9 Fold
HSC and HPC; Day 8
  CFU-GEMM numbers, MEAN: 0.6 per 100000 mononuclear cells
  CFU-GM numbers, MEAN: 0.6 per 100000 mononuclear cells
  CFU-GEMM numbers: 1 per 100000 mononuclear cells (3×) and 0 per 100000 mononuclear cells (2×)
  CFU-GM numbers: 1 per 100000 mononuclear cells (3×) and 0 per 100000 mononuclear cells (2×)
  Fold increase in number of CFU-GM: 0 Fold
  Fold increase in number of CFU-Mix (CFU-GEMM): 0 Fold
HSC and HPC; 5 μg/mouse s.c. daily for 4 days, day 8
  number of CFU-GEMM or CFU-GM: no difference found
HSC and HPC; Day 4, 1 hr after the last injection
  Fold increase in number of CFU-Mix (CFU-GEMM): 1.7 Fold
